Assay results from patent US12384777B2 (Tay Therapeutics Limited, priority 2019, dated 2025).
Read-outs that look alike come from different tables or passages of the source.

Columns and labels:
BRD4 BD1 = BRD4 BD1 (Homo sapiens (Human), UniProt O60885); experiment: Bromodomain binding assay (T7 phage display, qPCR), BRD4 BD1
Protocol: (§1) T7 phage strains displaying bromodomains were grown in parallel in 24-well blocks in an E. coli host derived from the BL21 strain. E. coli were grown to log-phase and infected with T7 phage from a frozen stock (multiplicity of infection=0.4) and incubated with shaking at 32° C. until lysis (90-150 min). The lysates were centrifuged (5,000×g) and filtered (0.2 μm) to remove cell debris. Streptavidin-coated magnetic beads were treated with biotinylated small molecule or acetylated peptide ligands for 30 min at RT to generate affinity resins for bromodomain assays. The ligated beads were blocked with excess biotin and washed with blocking buffer (SeaBlock (Pierce), 1% BSA, 0.05% Tween 20, 1 mM DTT) to remove unbound ligand and to reduce non-specific phage binding. Binding reactions were assembled by combining bromodomains, ligated affinity beads, and test compounds in 1× binding buffer (16% SeaBlock, 0.32×PBS, 0.02% BSA, 0.04% Tween 20, 0.004% Sodium azide, 7.9 mM DTT). Test compounds were prepared as 1000× stocks in 100% DMSO and subsequently diluted 1:25 in MEG. The compounds were then diluted directly into the assays such that the final concentrations of DMSO and MEG were 0.1% and 2.4%, respectively. All reactions were performed in polypropylene 384-well plates in a final volume of 0.02 ml. The assay plates were incubated at RT with shaking for 1 hr and the affinity beads were washed with wash buffer (1×PBS, 0.05% Tween 20). The beads were then re-suspended in elution buffer (1×PBS, 0.05% Tween 20, 2 μM non-biotinylated affinity ligand) and incubated at RT with shaking for 30 min. The bromodomain concentration in the eluates was measured by quantitative polymerase chain reaction (qPCR).
(§2) An 11-point 3-fold serial dilution of each test compound was prepared in 100% DMSO at 1000× final test concentration. All compounds were distributed by acoustic transfer (non-contact dispensing) in 100% DMSO. The compounds were then diluted directly into the assays such that the final concentration of DMSO was 0.09%. Most dissociation constants were determined using a compound top concentration=10,000 nM. If the initial dissociation constant determined was <0.169 nM (the lowest concentration tested), the measurement was repeated with a serial dilution starting at a lower top concentration.
(§3) The same bromodomain assay procedure as that outlined above was used. Example compounds were screened at 30 times their Kd, and results for primary screen binding interactions are reported as ‘% Ctrl’, where lower numbers indicate stronger hits in the matrix.

human liver hepatocytes = experiment: Intrinsic clearance in human liver hepatocytes; type: in vitro ADME; conditions: human cryopreserved hepatocytes, 0.5 μM test compound
Protocol: Vials of human cryopreserved hepatocytes, supplied by Life Technologies, were thawed according to manufacturer's instructions and cells re-suspended in Williams Medium E (WME) containing cell maintenance supplement pack (CM4000, Life Technologies). Hepatocytes were incubated in suspension (0.5 million cells/mL) in 48 well non-collagen coated cell culture plates for 10 min at 37° C., 5% CO2. Upon addition of an equal volume of supplemented WME containing 1 μM test compound, an aliquot of incubation solution was removed to acetonitrile containing internal standard (final concentration 0.5 μM test compound and a cell density of 0.25 million cells/mL). Similarly, aliquots were removed at 3, 6, 9, 15, 30, 45, 60, 90 and 120 min. 100 μL of 80:20 water:acetonitrile was added to all samples and the analysis plate was centrifuged for 10 min at RT prior to injection and analysis of samples by UPLC-MS/MS. The response (area ratio of test compound to internal standard) was plotted against time using an exponential decay model from which rate of disappearance was calculated.

[1] = Solubility in topical formulations; type: physicochemical; conditions: thermodynamic from solid
Protocol: The solubilities of solid exemplary compounds were determined in a selection of solvents and solvent combinations (Transcutol, 50:50 Transcutol:water, Labrasol, propylene glycol and 1:5:4 ethanol:propylene glycol:water), after equilibration. An appropriate volume of each combination was added to a manual weighing of solid compound to provide a 20 mg/mL concentration. The resulting suspension was shaken at 1000 rpm for 5 hr at 32° C. before centrifugation at 13,000×g for 10 min to pellet any precipitate. The supernatant solution was removed and inserted into a HPLC vial and quantified by HPLC-UV against a calibration of a known concentration of the compound in DMSO.

[2] = Stability in human skin S9 fraction; type: in vitro ADME; conditions: 0.3 mg/mL S9, NADPH, UDPGA, 0.5 μM compound; for half-life at 0.5 μM: human, human skin S9 fraction, pH 7.4, read-out: T1/2 (min) in human skin S9 fractions
Protocol: An incubation mixture was prepared containing 50 mM potassium phosphate buffer, pH 7.4), 0.3 mg/mL human skin S9 (Sekisui Xenotech), NADPH (final conc 0.8 mg/mL), UDPGA (final conc 0.16 mg/mL) and warmed to 37° C. for 5 min. The reaction was initiated upon addition of test compound (final concentration 0.5 μM). Immediately, at time zero, then at 3, 6, 15, 30, 60, 120 and 180 min, an aliquot (50 μL) of the incubation mixture was removed and mixed with acetonitrile (100 μL) to terminate the reaction. Internal standard was added to all samples, the samples centrifuged to sediment precipitated protein and the plates then sealed prior to UPLC-MS/MS analysis using a Quattro Premier XE (Waters corporation, USA).
Grafit (Erithacus Ltd) was used to calculate the exponential decay and consequently the rate constant (k) from the ratio of peak area of test compound to internal standard at each timepoint. The half life (T1/2) of each test compound was determined using the following equation: T1/2=0.693/k

[3] = Hydrolytic stability at a range of pHs; type: physicochemical; conditions: 60° C., 6 days
Protocol: To test the hydrolytic stability a 1 mg/mL solution of test materials was made in DMSO (0.1% solution). To 300 μL of each solution in a HPLC vials was added 1200 μL of one of the following: pH 4.0 buffer—left at 60° C. for 5 days. Samples taken t=0 hr and 6 days pH 5.5 buffer—left at 60° C. for 5 days. Samples taken t=0 hr and 6 days pH 7.4 buffer—left at 60° C. for 5 days. Samples taken t=0 hr and 6 days A 100 μL aliquot was taken at each time point and added to 900 μL of DMSO. This sample was used to determine % decomposition.
% decomposition was measured with a Bruker MicrOTOF II focus ESI Mass Spectrometer connected in parallel to Dionex Ultimate 3000 RSLC system with diode array detector.

BRD4 BD2 = BRD4 BD2 (Homo sapiens (Human), UniProt O60885); experiment: Bromodomain binding assay (T7 phage display, qPCR), BRD4 BD2
Protocol: as §1, §2, §3

BRD2(1) = BRD2(1) (Homo sapiens (Human), UniProt P25440); experiment: Bromodomain binding assay, BRD2(1)
Protocol: as §1
(§4) An 11-point 3-fold serial dilution of each test compound was prepared in 100% DMSO at 1000× final test concentration. […] Most dissociation constants were determined using a compound top concentration=10,000 nM. If the initial dissociation constant determined was <0.169 nM (the lowest concentration tested), the measurement was repeated with a serial dilution starting at a lower top concentration. […]

BRD3(1) = BRD3(1) (Homo sapiens (Human), UniProt Q15059); experiment: Bromodomain binding assay, BRD3(1)
Protocol: as §1, §4

BRDT(1) = BRDT(1) (Homo sapiens (Human), UniProt Q58F21); experiment: Bromodomain binding assay, BRDT(1)
Protocol: as §1, §4

BRD2(2) = BRD2(2) (Homo sapiens (Human), UniProt P25440); experiment: Bromodomain binding assay, BRD2(2)
Protocol: as §1, §4

BRD3(2) = BRD3(2) (Homo sapiens (Human), UniProt Q15059); experiment: Bromodomain binding assay, BRD3(2)
Protocol: as §1, §4

BRDT(2) = BRDT(2) (Homo sapiens (Human), UniProt Q58F21); experiment: Bromodomain binding assay, BRDT(2)
Protocol: as §1, §4

[4] = tested on: CD4+ T-cells stimulated by CD2, CD3 and CD28 antibodies; experiment: Cellular activity IL-4: reduction of IL-4 levels in activated CD4+ T-cells; type: cell-based, human; conditions: Homo sapiens, T-cell
Protocol: • 1. CD4^+ T-cells are isolated from cryopreserved human peripheral blood mononuclear cells (PBMCs) using EasySep™ Kit (Cat. No. 17952, Stemcell Technologies). • 2. CD2, CD3 and CD28 antibodies coated beads from T cell Activation/Expansion Kit (Cat. No. 130-091-441, Miltenyi Biotec) are added to the CD4^+ T-cells at a bead-to-cell ratio of 1:2. • 3. CD4^+ T-cells along with the beads are seeded at 2×10^5 cells/well in a round bottom 96-well plate and treated with different compounds and controls in a total volume of 200 μl. • 4. The cells are cultured for 48 hrs at 37° C., 5% CO2. • 5. Supernatant is collected and IL-4 is analysed by ELISA.

[5] = tested on: healthy human skin stimulated by a Th2 or Th17 biasing cocktail; experiment: Th2 and Th17 stimulation of human skin explants, IL-4 / IL-17A mRNA; type: cell-based
Protocol: • 1. Freshly excised healthy human skin tissue from abdominoplasties is defatted, cleaned and sectioned into 7 mm biopsies. • 2. The biopsies are placed in Transwell® inserts with the epidermis apical and exposed to air and the dermis submerged in media in the basal chamber. • 3. The biopsies are pre-treated overnight at 37° C., 5% CO2 with different compounds and controls added to the media in the basal chamber. • 4. The next day, contents of the basal chamber is replaced with fresh media containing the test compound and a stimulation cocktail for either Th2 inflammation (proprietary Medpharm cocktail) or Th17 inflammation (mix of antibodies against CD3, CD28, IL-4, IFNγ and recombinant IL-1β, IL-6, IL-21, TGF-β). • 5. The biopsies are incubated at 37° C., 5% CO2 for a further 24 hrs. • 6. After harvesting, the biopsies are cut in half, and one half is homogenized and used for RNA extraction by standard methods. IL-4 or IL-17A is assessed by RT-qPCR.

[6] = Labrasol, oil or lipid, 5 hr at 32° C., read-out: Solubility in LB (Labrasol)
[7] = Transcutol, organic solvent or mixture, 5 hr at 32° C., read-out: Solubility in TC (Transcutol)
[8] = Transcutol:water 1:1, aqueous with cosolvent or surfactant or cyclodextrin, 5 hr at 32° C., read-out: Solubility in TC:water 1:1
[9] = propylene glycol, organic solvent or mixture, 5 hr at 32° C., read-out: Solubility in PG (Propylene glycol)
[10] = single point, screened at 30 times Kd, lower numbers indicate stronger hits
[11] = 48 hrs, ELISA, read-out: EC50 reduction of IL-4 levels
[12] = read-out: cellular EC50 values, reduction of IL-4 levels

BRD3(1), sequence (Q15059 34-140): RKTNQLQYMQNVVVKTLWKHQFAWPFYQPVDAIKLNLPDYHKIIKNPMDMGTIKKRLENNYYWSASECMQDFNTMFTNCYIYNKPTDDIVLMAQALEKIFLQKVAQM
BRD2(1), sequence (P25440 74-180): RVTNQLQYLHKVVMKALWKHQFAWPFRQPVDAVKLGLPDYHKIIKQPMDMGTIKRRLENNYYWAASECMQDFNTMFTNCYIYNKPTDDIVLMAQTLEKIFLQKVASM
BRD2(2), sequence (P25440 344-453): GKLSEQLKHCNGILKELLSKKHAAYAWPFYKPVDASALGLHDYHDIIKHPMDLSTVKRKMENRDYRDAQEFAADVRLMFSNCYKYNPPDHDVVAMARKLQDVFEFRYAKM
BRD3(2), sequence (Q15059 306-415): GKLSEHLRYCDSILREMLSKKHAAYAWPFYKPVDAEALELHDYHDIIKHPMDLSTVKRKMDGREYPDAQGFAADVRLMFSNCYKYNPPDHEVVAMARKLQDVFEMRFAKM

Cn1cc(-c2ccc(O)cc2Oc2ccccc2)c2cc[nH]c2c1=O [Example 2, 4-(4-hydroxy-2-phenoxyphenyl)-6-methyl-1,6-dihydro-7H-pyrrolo[2,3-c]pyridin-7-one]
Kd (BRD4 BD1; read-out: BRD4 BD1 Kd): 10 to 100 nM | Intrinsic clearance, % Liver Blood Flow (human liver hepatocytes): 88 % Liver Blood Flow | solubility at 5 hr [1, 6]: 1000 to 10000 µg/mL | solubility at 5 hr [1, 7]: > 10000 µg/mL | solubility at 5 hr [1, 8]: 1000 to 10000 µg/mL | solubility at 5 hr [1, 9]: 1000 to 10000 µg/mL | half-life at 0.5 μM [2]: > 120 min | pH 4.0 % decomposition ([3]; pH 4.0 buffer): 15% | pH 5.5 % decomposition ([3]; pH 5.5 buffer): 30% | pH 7.4 % decomposition ([3]; pH 7.4 buffer): 0%

CCNC(=O)c1cc2c(-c3ccn(C)c(=O)c3Oc3c(C)cc(F)cc3C)cn(C)c(=O)c2[nH]1 [Example 41, N-ethyl-4-(3-(4-fluoro-2,6-dimethylphenoxy)-1-methyl-2-oxo-1,2-dihydropyridin-4-yl)-6-methyl-7-oxo-6,7-dihydro-1H-pyrrolo[2,3-c]pyridine-2-carboxamide]
Kd (BRD4 BD1; dose response, read-out: BRD4(1) Kd): > 3000 nM | Kd (BRD4 BD1; read-out: BRD4 BD1 Kd): > 1000 nM | BRD4(1) % Ctrl (BRD4 BD1; [10]): 90 % Ctrl | Kd (BRD4 BD2; dose response, read-out: BRD4(2) Kd): < 10 nM | Kd (BRD4 BD2; read-out: BRD4 BD2 Kd): ≤ 10 nM | BRD4(2) % Ctrl (BRD4 BD2; [10]): 8.7 % Ctrl | Kd (BRD2(1); dose response): > 3000 nM | BRD2(1) % Ctrl (BRD2(1); [10]): 100 % Ctrl | Kd (BRD3(1); dose response): > 3000 nM | BRD3(1) % Ctrl (BRD3(1); [10]): 85 % Ctrl | Kd (BRDT(1); dose response): > 3000 nM | BRDT(1) % Ctrl (BRDT(1); [10]): 100 % Ctrl | Kd (BRD2(2); dose response): < 10 nM | BRD2(2) % Ctrl (BRD2(2); [10]): 0.1 % Ctrl | Kd (BRD3(2); dose response): < 10 nM | BRD3(2) % Ctrl (BRD3(2); [10]): 2.3 % Ctrl | Kd (BRDT(2); dose response): < 10 nM | BRDT(2) % Ctrl (BRDT(2); [10]): 13 % Ctrl | EC50 [4, 11]: 10 to 100 nM | EC50 [4, 12]: < 100 nM | % reduction in IL-4 mRNA (IL-4) ([5]; 2.5 μM, Th2 biasing cocktail): ++ (> 50% reduction) | % reduction in IL-17A mRNA (IL-17) ([5]; 2.5 μM, Th17 biasing cocktail): +++ (> 75% reduction) | reduction of IL-4 or IL-17 levels ([5]; Th2 or Th17 biasing cocktail): > 50% | Intrinsic clearance, % Liver Blood Flow (human liver hepatocytes): <34 % Liver Blood Flow

Cn1cc(-c2cc(O)ccc2Oc2ccccc2)c2cc[nH]c2c1=O [Example 6, 4-(5-hydroxy-2-phenoxyphenyl)-6-methyl-1,6-dihydro-7H-pyrrolo[2,3-c]pyridin-7-one]
Kd (BRD4 BD1; read-out: BRD4 BD1 Kd): ≤ 10 nM | EC50 [4, 11]: 10 to 100 nM | EC50 [4, 12]: < 100 nM | Intrinsic clearance, % Liver Blood Flow (human liver hepatocytes): 94 % Liver Blood Flow | solubility at 5 hr [1, 6]: > 10000 µg/mL | solubility at 5 hr [1, 7]: > 10000 µg/mL | solubility at 5 hr [1, 8]: 1000 to 10000 µg/mL | solubility at 5 hr ([1]; ethanol:propylene glycol:water 1:5:4, aqueous with cosolvent or surfactant or cyclodextrin, 5 hr at 32° C., read-out: Solubility in EtOH:PG:water 1:5:4): 1000 to 10000 µg/mL | solubility at 5 hr [1, 9]: > 10000 µg/mL | solubility at 5 hr ([1]; topical formulation solvents and solvent combinations, 32 °C, organic solvent or mixture, read-out: solubilities in the formulations described): > 1000 µg/mL | T1/2 (min) in human skin S9 fractions [2]: >120 min | half-life at 0.5 μM [2]: > 120 min
